# Measured values published in patent US20200278343A1, “DIRECT VISUALIZATION OF INTEGRATED STRESS RESPONSE ACTIVITY” (priority 2019, published 2020).
# B1: UL148: viral ER-resident glycoprotein from human cytomegalovirus, ectopically expressed with a C-terminal HA tag (protein, UniProt F5H8Q3 21-316, looked up)
# Membrane protein UL148: SRDYVHVRLLSYRGDPLVFKHTFSGVRRPFTELGWAACRDWDSMHCTPFWSTDLEQMTDSVRRYSTVSPGKEVTLQLHGNQTVQPSFLSFTCRLQLEPVVENVGLYVAYVVNDGERPQQFFTPQVDVVRFALYLETLSRIVEPLESGRLTVEFDTPDLALAPDLVSSLFVAGHGETDFYMNWTLRRSQTHYLEEMALQVEILKPRGVRHRAIIHHPKLQPGVGLWIDFCVYRYNARLTRGYVRYTLSPKARLPAKAEGWLVSLDRFIVQYLNTLLITMMAAIWARVLITYLVSRRR
# modifications: C-terminal HA tag
# Columns and labels:
# IRE1 [1] = experiment: Xbp-1 splicing assay (RT-PCR) in HEK-293T cells; format: cell-based, human; details: 1 mM DTT, 2 h
# [2] = test system: Integrated Stress Response; experiment: UL148-GFP visual probe for ISR inhibition in living cells; format: cell-based; details: ARPE-19 cells, UL148-GFP induced 18 hours with 100 ng/mL doxycycline hyclate; 200 nM ISRIB in FIG. 2B
# Excerpt: The disclosed technology is based on UL148, a viral endoplasmic reticulum (ER)-resident protein, which influences the expression of a viral glycoprotein complex required for cell entry. UL148 activates the Unfolded Protein Response (UPR), resulting in stress-regulated translation of ISR mRNAs such as ATF4. ISR/UPR activation by UL148 causes the formation of large membranous structures from the ER, at which UL148 itself accumulates. […] Other fluorescent proteins may include Allophycocyanin, Brainbow, Cameleon, FMN-binding fluorescent protein, Glutamate-sensitive fluorescent reporter, MCherry, Phycoerythrin, Red fluorescent protein, RoGFP, SmURFP, Synapto-pHluorin, and Yellow fluorescent protein. […] Instead, treatment with an ISR-inhibitor (e.g., ISRIB) causes UL148-GFP to be evenly distributed across the ER such that the GFP staining is uniform and reticular. Therefore, the simple task of determining whether GFP signal is present and whether it is uniform or punctate provides a facile read-out that can be automated to enable high throughput screening for novel small molecule inhibitors that inhibit the ISR.
# ARPE-19 epithelial cells carrying a doxycycline inducible gene expression cassette encoding UL148-GFP were treated for 18 hours with 100 ng/mL doxycycline hyclate to induce UL148-GFP expression. In panel A, (FIG. 2A) UL148-GFP was induced in the absence of ISRIB. […]
# PERK = experiment: Western blot for PERK activation in stably transduced ARPE-19 cells; format: cell-based; details: 200 nM Tg, 4 h
# IRE1 [3] = experiment: Western blot for phospho-IRE1 (Ser724) in fibroblasts; format: cell-based, human; details: Tg-treated fibroblast lysates vs mock-treated, noninfected cells
# [4] = test system: protein synthesis (mRNA translation) in ARPE-19 cells; experiment: Metabolic labeling (35S Met/Cys incorporation) in i148HA and i159HA ARPE-19 cells; format: cell-based; details: 24 h Dox induction, 30 min 35S Met/Cys pulse, phosphorimager analysis
# Description: Having isolated stably transduced ARPE-19 cell populations, the inventors confirmed that that anti-HA immunoreactive polypeptides of the expected size for UL148 (i148^HA) or Rh159 (i159^HA) were induced upon treatment with 100 ng/ml doxycycline (Dox). Furthermore, expression of neither protein caused any overt reduction in cell viability or number, as measured by trypan blue exclusion following 24 h of Dox induction. The inventors therefore concluded that the i148^HA and i159^HA ARPE-19 cells were suitable to address whether UL148 might affect rates of mRNA translation in metabolic labeling studies. For these experiments, i148^HA and i159^HA cells were induced (or mock induced) for transgene expression for 24 h and then incubated in the presence of ^35S-labeled methionine and cysteine for 30 min. In parallel, labeling was also carried out using i159^HA cells that were incubated in the presence of either thapsigargin (Tg) or carrier alone, so as to provide positive and negative controls, respectively, for UPR induction.
# Metabolic labeling. i159^HA or i148^HA cells were seeded at 2×10^5 cells per well in a 24-well cluster plate in Gibco Opti-MEM reduced serum medium (Thermo Fisher) supplemented with 2.5% tetracycline (Tet)-free FBS (Clontech 631101). […] The relative signal per lane was calculated using Bio-Rad 1-D analysis software by reading the signal volume (counts·mm^2) in each lane. […]
molecule,measurement,setting,value
"O[C@H](CS)[C@H](O)CS (racemic) [DTT, dithiothreitol]",splicing of the 26-nt intron from Xbp-1 mRNA,IRE1 [1],spliced from nearly all the Xbp-1 mRNA
O=C(COc1ccc(Cl)cc1)NC1CCC(NC(=O)COc2ccc(Cl)cc2)CC1 (centres unmarked) [ISRIB],formation of UL148 structures,[2],completely blocks the formation of UL148 structures
"C/C=C(/C)C(=O)O[C@H]1C(C)=C2[C@H]([C@@H]1OC(=O)CCCCCCC)[C@@](C)(OC(C)=O)C[C@H](OC(=O)CCC)[C@@]1(O)[C@H]2OC(=O)[C@@]1(C)O [Tg, thapsigargin]",decreased mobility of the anti-PERK immunoreactive band (PERK autophosphorylation),PERK,readily observed
same,phospho-IRE1 signal,IRE1 [3],robust phospho-IRE1 signal
B1,decrease in protein synthesis compared to carrier-alone control,[4],~50%
